From patent US7994185B2, “Benzene sulfonamide thiazole and oxazole compounds” (Glaxo Smith Kline LLC, priority 2008, dated 2011)
Where two headings read alike, the source gives them in different places.

Molecular target: T1, BRAFV600E full-length (amino acids 2-766) (Homo sapiens, UniProt P15056, V600E)
T1 construct: His6-tagged BRAFV600E full-length (amino acids 2-766); His6; made in house; host or cells: baculovirus expression system (insect cells)
Assay: B-Raf Accelerated MEK ATPase assay (BRAMA)
Assay type: biochemical
Settings: later runs, average pIC50 for the one or more runs, categorized
Procedure: Compounds of the present invention were tested for B-Raf protein serine kinase inhibitory activity in a B-Raf Accelerated MEK ATPase assay (BRAMA). […] The BRAMA assay is a high sensitivity assay which measures an intrinsic MEK-mediated ATP hydrolysis uncoupled from downstream ERK phosphorylation by coupling the formation of ADP to NADH oxidation through the enzymes pyruvate kinase and lactate dehydrogenase. When ADP production is initiated by addition of catalytic amounts of an activated Raf enzyme and non-phosphorylated MEK, one observes robust ADP production concomitant with Raf-mediated phosphorylation of MEK. The method is disclosed in: C. Rominger, M. Schaber, E. May. Assay for B-Raf Activity Based on Intrinsic MEK ATPase Activity.

[1] = Table 1b, read-out: B-Raf pIC50 (converted)

T1 sequence (P15056 2-766 V600E): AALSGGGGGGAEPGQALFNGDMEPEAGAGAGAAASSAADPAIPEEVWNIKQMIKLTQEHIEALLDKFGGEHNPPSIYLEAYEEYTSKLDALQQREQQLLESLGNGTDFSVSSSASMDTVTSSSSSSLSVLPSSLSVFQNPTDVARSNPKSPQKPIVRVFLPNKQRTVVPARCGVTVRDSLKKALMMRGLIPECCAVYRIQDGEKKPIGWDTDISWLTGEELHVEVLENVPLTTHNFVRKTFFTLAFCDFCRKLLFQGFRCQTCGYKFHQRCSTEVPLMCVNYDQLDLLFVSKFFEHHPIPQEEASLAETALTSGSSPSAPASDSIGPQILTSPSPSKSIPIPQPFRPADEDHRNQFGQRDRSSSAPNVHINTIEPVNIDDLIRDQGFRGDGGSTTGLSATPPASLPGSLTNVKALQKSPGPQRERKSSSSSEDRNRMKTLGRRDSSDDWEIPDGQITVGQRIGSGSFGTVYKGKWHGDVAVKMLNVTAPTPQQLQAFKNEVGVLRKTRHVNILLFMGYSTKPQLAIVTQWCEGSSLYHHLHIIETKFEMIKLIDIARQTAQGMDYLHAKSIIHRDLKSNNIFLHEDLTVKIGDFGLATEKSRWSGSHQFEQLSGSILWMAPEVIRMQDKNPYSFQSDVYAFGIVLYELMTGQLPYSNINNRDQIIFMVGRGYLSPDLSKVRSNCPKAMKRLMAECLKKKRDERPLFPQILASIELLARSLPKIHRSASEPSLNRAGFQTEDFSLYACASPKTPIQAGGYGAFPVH

IC50 [1] [nM] | Structure (SMILES) | IC50 (B-Raf pIC50, Table 1b) [nM]
– | C[C@H](O)CNc1nccc(-c2sc(C(C)(C)C)nc2-c2cccc(NS(=O)(=O)c3c(F)cccc3F)c2F)n1 [Example 291, N-{3-[2-(1,1-dimethylethyl)-5-(2-{[(2S)-2-hydroxypropyl]amino}-4-pyrimidinyl)-1,3-thiazol-4-yl]-2-fluorophenyl}-2,6-difluorobenzenesulfonamide] | ≤ 3.16
– | CC(C)(C)c1nc(-c2cccc(NS(=O)(=O)c3c(F)cccc3F)c2F)c(-c2ccnc(NCCC#N)n2)s1 [Example 292, N-{3-[5-{2-[(2-cyanoethyl)amino]-4-pyrimidinyl}-2-(1,1-dimethylethyl)-1,3-thiazol-4-yl]-2-fluorophenyl}-2,6-difluorobenzenesulfonamide] | ≤ 3.16
– | CC(C)(C)c1nc(-c2cccc(NS(=O)(=O)c3c(F)cccc3F)c2F)c(-c2ccnc(NCCO)n2)s1 [Example 293, N-[3-(2-(1,1-dimethylethyl)-5-{2-[(2-hydroxyethyl)amino]-4-pyrimidinyl}-1,3-thiazol-4-yl)-2-fluorophenyl]-2,6-difluorobenzenesulfonamide] | ≤ 3.16
– | CC(C)(C)c1nc(-c2cccc(NS(=O)(=O)c3c(F)cccc3F)c2F)c(-c2ccnc(NC3CC3)n2)s1 [Example 294, N-{3-[5-[2-(cyclopropylamino)-4-pyrimidinyl]-2-(1,1-dimethylethyl)-1,3-thiazol-4-yl]-2-fluorophenyl}-2,6-difluorobenzenesulfonamide] | ≤ 3.16
– | CC(C)(C)c1nc(-c2cccc(NS(=O)(=O)c3c(F)cccc3F)c2F)c(-c2ccnc(N)n2)o1 [Example 296, N-{3-[5-(2-amino-4-pyrimidinyl)-2-(1,1-dimethylethyl)-1,3-oxazol-4-yl]-2-fluorophenyl}-2,6-difluorobenzenesulfonamide] | ≤ 3.16
– | CC(C)(C)c1nc(-c2cccc(NS(=O)(=O)c3cc(F)ccc3F)c2F)c(-c2ccnc(N)n2)o1 [Example 297, N-{3-[5-(2-amino-4-pyrimidinyl)-2-(1,1-dimethylethyl)-1,3-oxazol-4-yl]-2-fluorophenyl}-2,5-difluorobenzenesulfonamide] | ≤ 3.16
– | CC(C)(C)c1nc(-c2cccc(NS(=O)(=O)c3ccco3)c2F)c(-c2ccnc(N)n2)o1 [Example 298, N-{3-[5-(2-amino-4-pyrimidinyl)-2-(1,1-dimethylethyl)-1,3-oxazol-4-yl]-2-fluorophenyl}-2-furansulfonamide] | ≤ 3.16
– | CC(C)(C)c1nc(-c2cccc(NS(=O)(=O)c3ccoc3)c2F)c(-c2ccnc(N)n2)o1 [Example 299, N-{3-[5-(2-amino-4-pyrimidinyl)-2-(1,1-dimethylethyl)-1,3-oxazol-4-yl]-2-fluorophenyl}-3-furansulfonamide] | ≤ 3.16
– | O=S(=O)(Nc1cccc(-c2nc(C3CCOCC3)sc2-c2ccnc(NCCO)n2)c1F)c1ccoc1 [Example 300, N-{2-fluoro-3-[5-{2-[(2-hydroxyethyl)amino]-4-pyrimidinyl}-2-(tetrahydro-2H-pyran-4-yl)-1,3-thiazol-4-yl]phenyl}-3-furansulfonamide] | ≤ 3.16
– | CCN(CC)CCNc1nccc(-c2sc(C3CCOCC3)nc2-c2cccc(NS(=O)(=O)c3ccoc3)c2F)n1 [Example 301, N-{3-[5-(2-{[2-(diethylamino)ethyl]amino}-4-pyrimidinyl)-2-(tetrahydro-2H-pyran-4-yl)-1,3-thiazol-4-yl]-2-fluorophenyl}-3-furansulfonamide] | ≤ 3.16
– | C[C@@H](O)CNc1nccc(-c2sc(C3CCOCC3)nc2-c2cccc(NS(=O)(=O)c3ccoc3)c2F)n1 [Example 302, N-{2-fluoro-3-[5-(2-{[(2R)-2-hydroxypropyl]amino}-4-pyrimidinyl)-2-(tetrahydro-2H-pyran-4-yl)-1,3-thiazol-4-yl]phenyl}-3-furansulfonamide] | ≤ 3.16
– | C[C@H](O)CNc1nccc(-c2sc(C3CCOCC3)nc2-c2cccc(NS(=O)(=O)c3ccoc3)c2F)n1 [Example 303, N-{2-fluoro-3-[5-(2-{[(2S)-2-hydroxypropyl]amino}-4-pyrimidinyl)-2-(tetrahydro-2H-pyran-4-yl)-1,3-thiazol-4-yl]phenyl}-3-furansulfonamide] | ≤ 3.16
– | CC(C)CNc1nccc(-c2sc(C3CCOCC3)nc2-c2cccc(NS(=O)(=O)c3ccoc3)c2F)n1 [Example 304, N-{2-fluoro-3-[5-{2-[(2-methylpropyl)amino]-4-pyrimidinyl}-2-(tetrahydro-2H-pyran-4-yl)-1,3-thiazol-4-yl]phenyl}-3-furansulfonamide] | ≤ 3.16
– | O=S(=O)(Nc1cccc(-c2nc(C3CCOCC3)sc2-c2ccnc(NC3CCOCC3)n2)c1F)c1ccoc1 [Example 305, N-(2-fluoro-3-{2-(tetrahydro-2H-pyran-4-yl)-5-[2-(tetrahydro-2H-pyran-4-ylamino)-4-pyrimidinyl]-1,3-thiazol-4-yl}phenyl)-3-furansulfonamide] | ≤ 3.16
– | O=S(=O)(Nc1cccc(-c2nc(C3CCOCC3)sc2-c2ccnc(NCCN3CCCC3)n2)c1F)c1ccoc1 [Example 306, N-{2-fluoro-3-[5-(2-{[2-(1-pyrrolidinyl)ethyl]amino}-4-pyrimidinyl)-2-(tetrahydro-2H-pyran-4-yl)-1,3-thiazol-4-yl]phenyl}-3-furansulfonamide] | ≤ 3.16
– | O=S(=O)(Nc1cccc(-c2nc(C3CCOCC3)sc2-c2ccnc(NCCN3CCOCC3)n2)c1F)c1ccoc1 [Example 307, N-{2-fluoro-3-[5-(2-{[2-(4-morpholinyl)ethyl]amino}-4-pyrimidinyl)-2-(tetrahydro-2H-pyran-4-yl)-1,3-thiazol-4-yl]phenyl}-3-furansulfonamide] | ≤ 3.16
– | CC(C)(C(N)=O)c1nc(-c2cccc(NS(=O)(=O)c3c(F)cccc3F)c2F)c(-c2ccnc(N)n2)s1 [Example 309, 2-[5-(2-Amino-4-pyrimidinyl)-4-(3-{[(2,6-difluorophenyl)sulfonyl]amino}-2-fluorophenyl)-1,3-thiazol-2-yl]-2-methylpropanamide] | ≤ 3.16
– | Cc1nccc(-c2sc(C(C)(C)N)nc2-c2cccc(NS(=O)(=O)c3c(F)cccc3F)c2F)n1 [Example 310, N-{3-[2-(1-amino-1-methylethyl)-5-(2-methyl-4-pyrimidinyl)-1,3-thiazol-4-yl]-2-fluorophenyl}-2,6-difluorobenzenesulfonamide] | 31.6 to 1000
– | CC(C)(N)c1nc(-c2cccc(NS(=O)(=O)c3ccoc3)c2F)c(-c2ccnc(N)n2)s1 [Example 312, N-{3-[2-(1-amino-1-methylethyl)-5-(2-amino-4-pyrimidinyl)-1,3-thiazol-4-yl]-2-fluorophenyl}-3-furansulfonamide] | ≤ 3.16
3.16 to 31.6 | CC(C)(N)c1nc(-c2cccc(NS(=O)(=O)c3c(F)cccc3F)c2F)c(-c2ccnc(N)n2)s1 [Example 313, N-{3-[2-(1-amino-1-methylethyl)-5-(2-amino-4-pyrimidinyl)-1,3-thiazol-4-yl]-2-fluorophenyl}-2,6-difluorobenzenesulfonamide] | –
3.16 to 31.6 | Cc1nccc(-c2sc(C3CCOCC3)nc2-c2cccc(NS(=O)(=O)c3ccoc3)c2F)n1 [Example 314, N-{2-fluoro-3-[5-(2-methyl-4-pyrimidinyl)-2-(tetrahydro-2H-pyran-4-yl)-1,3-thiazol-4-yl]phenyl}-3-furansulfonamide] | –
